PubChem BioAssay (NCI)
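Interpolation was linear, between the two tested concentrations surrounding the appropriate level; five concentrations were tested over 48 hours in 96-well plates. At the TGI there is no net growth.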

How the values were obtained:
Test in all cases: NCI anticancer screen, dose series, 48 h
OVCAR-3 ovarian = system: OVCAR-3 ovarian
SK-MEL-5 melanoma = system: SK-MEL-5 melanoma
ACHN renal = system: ACHN renal
SNB-75 CNS = system: SNB-75 CNS
KM12 colon = system: KM12 colon
LOX IMVI melanoma = system: LOX IMVI melanoma
SK-MEL-28 melanoma = system: SK-MEL-28 melanoma
BT-549 breast = system: BT-549 breast
MALME-3M melanoma = system: MALME-3M melanoma
OVCAR-8 ovarian = system: OVCAR-8 ovarian

Cc1ccc(/C=C2\Cc3c(C)cc(C)cc3C2=O)c(C(=O)O)c1
TGI (OVCAR-3 ovarian): 94 µM | TGI (SK-MEL-5 melanoma): 85.2 µM | TGI (ACHN renal): > 100 µM | TGI (SNB-75 CNS): > 100 µM | TGI (KM12 colon): > 100 µM | TGI (LOX IMVI melanoma): 48.9 µM | TGI (SK-MEL-28 melanoma): > 100 µM | TGI (BT-549 breast): > 100 µM | TGI (MALME-3M melanoma): > 100 µM | TGI (OVCAR-8 ovarian): > 100 µM

CC(=O)c1ccc2c(c1)CC1(C2)Cc2ccccc2C1=O (stereo not given)
TGI (OVCAR-3 ovarian): > 100 µM | TGI (SK-MEL-5 melanoma): 65.3 µM | TGI (ACHN renal): > 100 µM | TGI (SNB-75 CNS): > 100 µM | TGI (KM12 colon): > 100 µM | TGI (LOX IMVI melanoma): > 100 µM | TGI (SK-MEL-28 melanoma): > 100 µM | TGI (BT-549 breast): > 100 µM | TGI (MALME-3M melanoma): > 100 µM | TGI (OVCAR-8 ovarian): > 100 µM

COC(=O)c1cc(C#N)[nH]c1-c1cc(Br)cs1
TGI (OVCAR-3 ovarian): 21.9 µM | TGI (SK-MEL-5 melanoma): 21.2 µM | TGI (ACHN renal): 61.9 µM | TGI (SNB-75 CNS): 22.6 µM | TGI (KM12 colon): > 53.4 µM | TGI (LOX IMVI melanoma): 25.5 µM | TGI (SK-MEL-28 melanoma): 36.5 µM | TGI (BT-549 breast): 35.1 µM | TGI (MALME-3M melanoma): 34.9 µM | TGI (OVCAR-8 ovarian): 43.7 µM

C[C@]12CC[C@@H]3c4cc(I)c(O)cc4CC[C@H]3[C@@H]1CC[C@@H]2O
TGI (OVCAR-3 ovarian): 11.9 µM | TGI (SK-MEL-5 melanoma): 12.2 µM | TGI (ACHN renal): 21 µM | TGI (SNB-75 CNS): 12.4 µM | TGI (KM12 colon): 13.2 µM | TGI (LOX IMVI melanoma): 25.8 µM | TGI (SK-MEL-28 melanoma): 26.7 µM | TGI (BT-549 breast): 25.1 µM | TGI (MALME-3M melanoma): 28.3 µM | TGI (OVCAR-8 ovarian): 40.2 µM

O=c1[nH]nc(Cc2ccccc2)n1/N=C/c1ccncc1
TGI (OVCAR-3 ovarian): > 100 µM | TGI (SK-MEL-5 melanoma): > 100 µM | TGI (ACHN renal): > 100 µM | TGI (SNB-75 CNS): > 100 µM | TGI (KM12 colon): > 100 µM | TGI (LOX IMVI melanoma): > 100 µM | TGI (SK-MEL-28 melanoma): > 100 µM | TGI (BT-549 breast): > 100 µM | TGI (MALME-3M melanoma): > 100 µM | TGI (OVCAR-8 ovarian): > 100 µM
